Starred links: 1 amine or outer side, 2 acyl side, 3 side chain; linkers in the order of their positions; H or OH if unused. Positions of bridges follow the written chain, without caps; N, C: chain ends. Non-standard residues stand in square brackets, D forms with d. Residues, ends and D or L forms follow the SMILES beside them. Chains are numbered I, II in the order given. Actinocin(9to1) = Cc1c2oc3c(C)ccc(C(=O)[*:1])c3nc-2c(C(=O)[*:2])c(N)c1=O; NMeV = CN[C@H](C(=O)O)C(C)C; Sar = CNCC(=O)O
What was measured:
[1] = target: T1, HEV-RdRp (Hepatitis E virus genotype 1, UniProt P33424); assay: HEV-RdRp enzyme activity; type: biochemical
T1 sequence (P33424 1207-1693 limits assumed): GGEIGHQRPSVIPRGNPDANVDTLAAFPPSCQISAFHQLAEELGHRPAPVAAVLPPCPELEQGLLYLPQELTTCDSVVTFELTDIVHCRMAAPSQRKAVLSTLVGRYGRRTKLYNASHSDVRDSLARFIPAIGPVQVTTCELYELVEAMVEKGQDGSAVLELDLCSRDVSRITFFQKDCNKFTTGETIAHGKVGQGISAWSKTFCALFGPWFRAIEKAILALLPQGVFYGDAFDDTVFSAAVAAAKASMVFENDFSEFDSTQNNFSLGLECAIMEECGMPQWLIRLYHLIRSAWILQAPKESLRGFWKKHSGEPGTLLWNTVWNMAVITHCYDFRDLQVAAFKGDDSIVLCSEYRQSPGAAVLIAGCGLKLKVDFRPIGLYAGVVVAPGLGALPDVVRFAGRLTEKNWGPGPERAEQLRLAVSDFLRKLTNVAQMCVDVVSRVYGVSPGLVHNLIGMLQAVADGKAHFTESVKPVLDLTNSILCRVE

[2] = tested on: HEV; assay: Immunofluorescence assay of ORF2 expression in HEV RNA-transfected Huh7 cells; type: cell-based, Hepatitis E virus; conditions: Huh7, anti-HEV-ORF2, 4–5 days after transfection
[3] = Cell viability by MTT assay; type: cell-based; conditions: human, Huh7 cells
[4] = tested on: HEV genotype 3 (pSHEV-3); assay: Viral RNA copy number by qPCR in Huh7 cells transfected with full-length HEV RNA; type: cell-based, Hepatitis E virus; conditions: 5 days post transfection, vs untreated cells
[5] = tested on: HEV; assay: Effect on viral replication; type: cell-based, Hepatitis E virus; conditions: concentration and assay not stated

| SMILES | effect on polymerase activity of HEV-RdRp [1] | IC50 [1] [µM] | CC50 at 72 h [3] [µM] | also measured |
| --- | --- | --- | --- | --- |
| CCc1cc(CC[C@]2(C3CCCC3)CC(O)=C(Cc3nc4nc(C)cc(C)n4n3)C(=O)O2)cc(CC)n1 [filibuvir] | reduced the polymerase activity | – | – | – |
| NC(=O)c1nc(F)c[nH]c1=O [favipiravir] | reduced the polymerase activity | 10.2 ± 4.9 | < 500 | effect on HEV replication (ORF2 mean fluorescence intensity) [2]: significantly inhibited HEV replication |
| CC(C)OC(=O)[C@H](C)N[P@](=O)(OC[C@H]1O[C@@H](n2ccc(=O)[nH]c2=O)[C@](C)(F)[C@@H]1O)Oc1ccccc1 [sofosbuvir] | reduced the polymerase activity | 5.2 ± 2.9 | < 125 | % reduction of viral RNA ([4]; 125 μM): ∼68% |
| Nc1nc2c(ncn2[C@@H]2O[C@H](COP(=O)(O)OP(=O)(O)OP(=O)(O)O)[C@@H](O)[C@H]2O)c(=O)[nH]1 [GTP] | – | – | – | Km ([1]; GTP varied 0 to 8 mM, 5 μM enzyme, poly(C) 1 μg, Michaelis–Menten fit): 400 µM |
| Cc1c2oc3c(C)ccc(C(=O)N[C@@H]4C(=O)N[C@H](C(C)C)C(=O)N5CCC[C@H]5C(=O)N(C)CC(=O)N(C)[C@@H](C(C)C)C(=O)O[C@@H]4C)c3nc-2c(C(=O)N[C@@H]2C(=O)N[C@H](C(C)C)C(=O)N3CCC[C@H]3C(=O)N(C)CC(=O)N(C)[C@@H](C(C)C)C(=O)O[C@@H]2C)c(N)c1=O [actinomycin-D] (I: T[dV]P[Sar][NMeV] / II: T[dV]P[Sar][NMeV]; ester I:1-I:C, II:1-II:C; linker I:N-II:N via Actinocin(9to1)) | – | – | – | effect on enzyme activity of RdRp ([1]; 5 μM actinomycin-D added to the reaction mixture): no significant effect |
| CCC(CC)COC(=O)[C@H](C)N[P@](=O)(OC[C@H]1O[C@@](C#N)(c2ccc3c(N)ncnn23)[C@H](O)[C@@H]1O)Oc1ccccc1 [remdesivir] | did not show any effect | – | – | – |
| Nc1ccn([C@@H]2CS[C@H](CO)O2)c(=O)n1 [lamivudine] | – | – | – | effect on in vitro enzyme activity of HEV-RdRp ([1]; concentration not given): inhibited; effect on viral replication [5]: did not show any effect |
| NC(=O)c1ncn([C@@H]2O[C@H](CO)[C@@H](O)[C@H]2O)n1 [ribavirin] | reduced the polymerase activity | 3.5 ± 1.6 | < 100 | % reduction of viral RNA ([4]; 100 μM): ∼72% |

Source: paper PMC10633873 (ACS Omega, 2023)
